Measurements published in patent US9497970B2, “Pesticide compounds” (priority 2013, dated 2016).

What was measured:
Assay type in all cases: in vivo
[1] = system: Diamond Back Moth (Plutella xylostella); experiment: B.1 Diamond Back Moth (Plutella xylostella), cabbage leaf dip; details: foliar, 500 ppm, 3rd instar larvae on dipped cabbage leaves, 72 hours after treatment, in comparison with untreated controls, read-out: mortality
Experimental: B.1 Diamond Back Moth (Plutella xylostella)
The active compound was dissolved at the desired concentration in a mixture of 1:1 (vol:vol) distilled water:aceteone. Surfactant (Kinetic HV) was added at a rate of 0.01% (vol/vol). The test solution was prepared at the day of use.
Leaves of cabbage were dipped in test solution and air-dried. Treated leaves were placed in petri dishes lined with moist filter paper and inoculated with ten 3rd instar larvae. Mortality was recorded 72 hours after treatment. Feeding damages were also recorded using a scale of 0-100%.

[2] = system: Boll Weevil (Anthonomus grandis); experiment: B.3 Boll Weevil (Anthonomus grandis), microtiter plate insect diet; details: 120 h, 800 ppm, sprayed onto insect diet, 5 days, in comparison with untreated controls, read-out: mortality (egg and larval)
Experimental: B.3 Boll Weevil (Anthonomus grandis)
For evaluating control of boll weevil (Anthonomus grandis) the test unit consisted of 96-well-microtiter plates containing an insect diet and 5-10 A. grandis eggs.
(§1) The compounds were formulated using a solution containing 75% v/v water and 25% v/v DMSO. Different concentrations of formulated compounds were sprayed onto the insect diet at 5 μl, using a custom built micro atomizer, at two replications.
After application, microtiter plates were incubated at about 25±1° C. and about 75±5% relative humidity for 5 days. Egg and larval mortality was then visually assessed.

[3] = system: Mediterranean Fruitfly (Ceratitis capitata); experiment: B.6 Mediterranean Fruitfly (Ceratitis capitata), microtiter plate insect diet; details: 120 h, 800 ppm, sprayed onto insect diet, 5 days, in comparison with untreated controls, read-out: mortality (egg and larval)
Experimental: B.6 Mediterranean Fruitfly (Ceratitis capitata)
For evaluating control of Mediterranean fruitfly (Ceratitis capitata) the test unit consisted of microtiter plates containing an insect diet and 50-80 C. capitata eggs.
as §1
(§2) After application, microtiter plates were incubated at about 28±1° C. and about 80±5% relative humidity for 5 days. Egg and larval mortality was then visually assessed.

[4] = system: Tobacco Budworm (Heliothis virescens); experiment: B.7 Tobacco Budworm (Heliothis virescens) I, microtiter plate insect diet; details: 120 h, 800 ppm, sprayed onto insect diet, 5 days, in comparison with untreated controls, read-out: mortality (egg and larval)
Experimental: B.7 Tobacco Budworm (Heliothis virescens) I
as §1, with “For evaluating control of tobacco budworm (Heliothis virescens) the test unit consisted of 96-well-microtiter plates containing an insect diet and 15-25 H. virescens eggs. The” for “The”, “at 10” for “at 5”
as §2

[5] = system: Yellow Fever Mosquito (Aedes aegypti); experiment: whole plant or invertebrate; details: 48 h, freshly hatched larvae in tap water, 2 days, in comparison with untreated controls, read-out: mortality (larval)
Experimental: B.11 Yellow Fever Mosquito (Aedes aegypti)
For evaluating control of yellow fever mosquito (Aedes aegypti) the test unit consisted of 96-well-microtiter plates containing 200 μl of tap water per well and 5-15 freshly hatched A. aegypti larvae.
The active compounds were formulated using a solution containing 75% (v/v) water and 25% (v/v) DMSO. Different concentrations of formulated compounds or mixtures were sprayed onto the insect diet at 2.5 μl, using a custom built micro atomizer, at two replications.

[6] = system: Orchid thrips (dichromothrips corbetti); experiment: B.12 Orchid thrips (dichromothrips corbetti), floral-immersion technique; details: adult thrips on dipped orchid petals, 72 hours after treatment, in comparison with untreated controls
Experimental: B.12 Orchid thrips (dichromothrips corbetti)
Dichromothrips corbetti adults used for bioassay were obtained from a colony maintained continuously under laboratory conditions. For testing purposes, the test compound is diluted in a 1:1 mixture of acetone:water (vol:vol), plus Kinetic HV at a rate of 0.01% v/v.
Thrips potency of each compound was evaluated by using a floral-immersion technique. All petals of individual, intact orchid flowers were dipped into treatment solution and allowed to dry in Petri dishes. Treated petals were placed into individual resealable plastic along with about 20 adult thrips. All test arenas were held under continuous light and a temperature of about 28° C. for duration of the assay. After 3 days, the numbers of live thrips were counted on each petal. The percent mortality was recorded 72 hours after treatment.

COc1cccc(C)c1NC(=S)N/N=C/c1ccc2c(ccc3c2ncn3-c2ccc(OC(F)(F)F)cc2)c1 [C-65, 1-(2-methoxy-6-methyl-phenyl)-3-[(E)-[3-[4-(trifluoromethoxy)phenyl]benzo[e]benzimidazol-7-yl]methyleneamino] thiourea]
≥ 75%: mortality at 500 ppm [1] | mortality at 800 ppm [2] | mortality at 800 ppm [3] | mortality at 800 ppm [4] | mortality at 800 ppm [5] | mortality at 500 ppm [6]

CC(C)c1ccccc1N1C(=O)CS/C1=N\C(=O)Nc1ccc2c(ccc3c2ncn3-c2ccc(OC(F)(F)F)cc2)c1 [C-115, (1Z)-1-[3-(2-isopropylphenyl)-4-oxo-thiazolidin-2-ylidene]-3-[3-[4(trifluoromethoxy)phenyl]benzo[e]benzimidazol-7-yl]urea]
≥ 75%: mortality at 800 ppm [2] | mortality at 800 ppm [3] | mortality at 800 ppm [4] | mortality at 800 ppm [5]

Cc1cccc(C)c1NC(=S)N/N=C/c1ccc2c(ccc3c2ncn3-c2ncc(C(F)(F)F)cc2Cl)c1 [C-112, 1-[[3-[3-chloro-5-(trifluoromethyl)-2-pyridyl]-3aH-benzo[e]benzimidazol-7-ylidene]methylimino]-3-(2,6-dimethylphenyl)thiourea]
≥ 75%: mortality at 800 ppm [2] | mortality at 800 ppm [3] | mortality at 800 ppm [4] | mortality at 800 ppm [5]

Cc1cccc(C)c1NC(=S)N/N=C/c1ccc2c(c1)sc1c2ncn1-c1ccc(OC(F)(F)F)cc1 [C-47, 1-(2,6-dimethylphenyl)-3-[(E)-[3-[4-(trifluoromethoxy)phenyl]benzothiopheno[2,3-d]imidazol-6-yl]methyleneamino]thiourea]
≥ 75%: mortality at 500 ppm [1] | mortality at 800 ppm [2] | mortality at 800 ppm [3] | mortality at 800 ppm [4] | mortality at 800 ppm [5]

COc1cccc(C)c1NC(=S)N/N=C/c1ccc2c(ccc3c(-c4ccc(OC(F)(F)F)cc4)n(C)nc32)c1 [C-97, 1-(2-methoxy-6-methyl-phenyl)-3-[(E)-[2-methyl-3-[4-(trifluoromethoxy)phenyl]benzo[g]indazol-7-yl]methyleneamino]thiourea]
≥ 75%: mortality at 500 ppm [1] | mortality at 800 ppm [2] | mortality at 800 ppm [3] | mortality at 800 ppm [4] | mortality at 800 ppm [5]

FC(F)(F)Oc1ccc(-n2cnc3c4ccc(/C=N/NC(=S)Nc5c(Cl)cccc5Cl)cc4ccc32)cc1 [C-37, 1-(2,6-dichlorophenyl)-3-[(E)-[3-[4-(trifluoromethoxy)phenyl]benzo[e]benzimidazol-7-yl]methyleneamino] thiourea]
≥ 75%: mortality at 500 ppm [1] | mortality at 800 ppm [2] | mortality at 800 ppm [3] | mortality at 800 ppm [4] | mortality at 800 ppm [5] | mortality at 500 ppm [6]

Cc1ccc(C)c(NC(=S)N/N=C/c2ccc3c(ccc4c3ncn4-c3ccc(OC(F)(F)F)cc3)c2)c1 [C-41, 1-(2,5-dimethylphenyl)-3-[(E)-[3-[4-(trifluoromethoxy)phenyl]benzo[e]benzimidazol-7-yl]methyleneamino] thiourea]
≥ 75%: mortality at 500 ppm [1] | mortality at 800 ppm [2] | mortality at 800 ppm [3] | mortality at 800 ppm [4] | mortality at 800 ppm [5] | mortality at 500 ppm [6]

CC(C)c1ccccc1NC(=S)N/N=C/c1ccc2c(ccc3c2ncn3-c2ccc(OC(F)(F)F)cc2)c1 [C-45, 1-(2-isopropylphenyl)-3-[[3-[4-(trifluoromethoxy)phenyl]-3aH-benzo[e]benzimidazol-7-ylidene]methylimino] thiourea]
≥ 75%: mortality at 500 ppm [1] | mortality at 800 ppm [2] | mortality at 800 ppm [3] | mortality at 800 ppm [4] | mortality at 500 ppm [6]

FC(F)(F)Oc1ccc(-n2cnc3c4ccc(/C=N/NC(=S)Nc5c(Br)cccc5Br)cc4ccc32)cc1 [C-66, 1-(2,6-dibromophenyl)-3-[(E)-[3-[4-(trifluoromethoxy)phenyl]benzo[e]benzimidazol-7-yl]methyleneamino] thiourea]
≥ 75%: mortality at 500 ppm [1] | mortality at 800 ppm [2] | mortality at 800 ppm [3] | mortality at 800 ppm [4] | mortality at 500 ppm [6]

CCc1cccc(CC)c1NC(=S)N/N=C/c1ccc2c(ccc3c(-c4ccc(OC(F)(F)F)cc4)n(C)nc32)c1 [C-93, 1-(2,6-diethylphenyl)-3-[(E)-[2-methyl-3-[4-(trifluoromethoxy)phenyl]benzo [g]indazol-7-yl]methyleneamino] thiourea]
≥ 75%: mortality at 500 ppm [1] | mortality at 800 ppm [2] | mortality at 800 ppm [4] | mortality at 800 ppm [5] | mortality at 500 ppm [6]

Cc1cccc(C)c1NC(=S)N/N=C/c1ccc2c(ccc3c(-c4ccc(OC(F)(F)F)cc4)snc32)c1 [C-88, 1-(2,6-dimethylphenyl)-3-[(E)-[3-[4-(trifluoromethoxy)phenyl]benzo[g][2,1]benzothiazol-7-yl]methyleneamino] thiourea]
≥ 75%: mortality at 800 ppm [4] | mortality at 800 ppm [5]

Cc1cccc(C)c1NC(=S)N/N=C/c1ccc2c(c1)CCC1C2=NN(C)C1c1ccc(OC(F)(F)F)cc1 (stereo not shown) [C-94, 1-(2,6-dimethylphenyl)-3-[(E)-[2-methyl-3-[4-(trifluoromethoxy)phenyl]-3,3a,4,5-tetrahydrobenzo[g]indazol-7-yl]methyleneamino]thiourea]
≥ 75%: mortality at 500 ppm [1] | mortality at 800 ppm [2] | mortality at 800 ppm [4] | mortality at 800 ppm [5] | mortality at 500 ppm [6]

Cc1cccc(C)c1NC(=S)N/N=C/c1ccc2c(ccc3c(-c4ccc(OC(F)(F)F)cc4)n(C)nc32)c1 [C-96, 1-(2,6-dimethylphenyl)-3-[(E)-[2-methyl-3-[4-(trifluoromethoxy)phenyl]benzo[g]indazol-7-yl]methyleneamino] thiourea]
≥ 75%: mortality at 500 ppm [1] | mortality at 800 ppm [2] | mortality at 800 ppm [3] | mortality at 800 ppm [4] | mortality at 800 ppm [5] | mortality at 500 ppm [6]

CC(C)c1ccccc1N/C(S)=N/C(=O)Nc1ccc2c(ccc3c2ncn3-c2ccc(OC(F)(F)F)cc2)c1 [C-117, (1Z)-1-[(2-isopropylanilino)-sulfanyl-methylene]-3-[3-[4-(trifluoromethoxy)phenyl]benzo[e]benzimidazol-7-yl]urea]
≥ 75%: mortality at 800 ppm [2] | mortality at 800 ppm [3] | mortality at 800 ppm [4] | mortality at 800 ppm [5]

Cc1cccnc1NC(=S)N/N=C/c1ccc2c(ccc3c(-c4ccc(OC(F)(F)F)cc4)n(C)nc32)c1 [C-101, 1-(3-methyl-2-pyridyl)-3-[(E)-[2-methyl-3-[4-(trifluoromethoxy)phenyl]benzo[g]indazol-7-yl]methyleneamino]thiourea]
≥ 75%: mortality at 500 ppm [1] | mortality at 800 ppm [2] | mortality at 800 ppm [3] | mortality at 800 ppm [4] | mortality at 500 ppm [6]
